Measurements as given in patent US8148391B2 (Cephalon, Inc., priority 2006, dated 2012).
Like-named read-outs stand apart in the source and are kept apart here.

Legend:
[1] = target: T1, c-Met (cytoplasmic domain) (Homo sapiens, UniProt P08581); experiment: c-Met Kinase Assay (same methods as for ALK, with modifications); format: biochemical
T1 construct: 10 ng/mL c-Met (cytoplasmic domain, Invitrogen Corporation #PV3143); purchased Invitrogen Corporation PV3143
How it was run: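 IC50 values were fitted by variable-slope sigmoidal regression of percent inhibition against log compound concentration. Phosphorylation was read with Eu-N1 PT66 antibody after a 15 min, 37 °C reaction. The reaction was initiated with 10 ng/mL c-Met cytoplasmic domain on wells coated with 10 μg/mL PLC-γ in TBS.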

[2] = target: T2, baculovirus-expressed ALK (Homo sapiens, UniProt Q9UM73); experiment: ALK Kinase Assay (ELISA-type, time-resolved fluorescence); format: biochemical
T2 construct: host or cells: baculovirus expression system
T2 sequence (Q9UM73 19-1620): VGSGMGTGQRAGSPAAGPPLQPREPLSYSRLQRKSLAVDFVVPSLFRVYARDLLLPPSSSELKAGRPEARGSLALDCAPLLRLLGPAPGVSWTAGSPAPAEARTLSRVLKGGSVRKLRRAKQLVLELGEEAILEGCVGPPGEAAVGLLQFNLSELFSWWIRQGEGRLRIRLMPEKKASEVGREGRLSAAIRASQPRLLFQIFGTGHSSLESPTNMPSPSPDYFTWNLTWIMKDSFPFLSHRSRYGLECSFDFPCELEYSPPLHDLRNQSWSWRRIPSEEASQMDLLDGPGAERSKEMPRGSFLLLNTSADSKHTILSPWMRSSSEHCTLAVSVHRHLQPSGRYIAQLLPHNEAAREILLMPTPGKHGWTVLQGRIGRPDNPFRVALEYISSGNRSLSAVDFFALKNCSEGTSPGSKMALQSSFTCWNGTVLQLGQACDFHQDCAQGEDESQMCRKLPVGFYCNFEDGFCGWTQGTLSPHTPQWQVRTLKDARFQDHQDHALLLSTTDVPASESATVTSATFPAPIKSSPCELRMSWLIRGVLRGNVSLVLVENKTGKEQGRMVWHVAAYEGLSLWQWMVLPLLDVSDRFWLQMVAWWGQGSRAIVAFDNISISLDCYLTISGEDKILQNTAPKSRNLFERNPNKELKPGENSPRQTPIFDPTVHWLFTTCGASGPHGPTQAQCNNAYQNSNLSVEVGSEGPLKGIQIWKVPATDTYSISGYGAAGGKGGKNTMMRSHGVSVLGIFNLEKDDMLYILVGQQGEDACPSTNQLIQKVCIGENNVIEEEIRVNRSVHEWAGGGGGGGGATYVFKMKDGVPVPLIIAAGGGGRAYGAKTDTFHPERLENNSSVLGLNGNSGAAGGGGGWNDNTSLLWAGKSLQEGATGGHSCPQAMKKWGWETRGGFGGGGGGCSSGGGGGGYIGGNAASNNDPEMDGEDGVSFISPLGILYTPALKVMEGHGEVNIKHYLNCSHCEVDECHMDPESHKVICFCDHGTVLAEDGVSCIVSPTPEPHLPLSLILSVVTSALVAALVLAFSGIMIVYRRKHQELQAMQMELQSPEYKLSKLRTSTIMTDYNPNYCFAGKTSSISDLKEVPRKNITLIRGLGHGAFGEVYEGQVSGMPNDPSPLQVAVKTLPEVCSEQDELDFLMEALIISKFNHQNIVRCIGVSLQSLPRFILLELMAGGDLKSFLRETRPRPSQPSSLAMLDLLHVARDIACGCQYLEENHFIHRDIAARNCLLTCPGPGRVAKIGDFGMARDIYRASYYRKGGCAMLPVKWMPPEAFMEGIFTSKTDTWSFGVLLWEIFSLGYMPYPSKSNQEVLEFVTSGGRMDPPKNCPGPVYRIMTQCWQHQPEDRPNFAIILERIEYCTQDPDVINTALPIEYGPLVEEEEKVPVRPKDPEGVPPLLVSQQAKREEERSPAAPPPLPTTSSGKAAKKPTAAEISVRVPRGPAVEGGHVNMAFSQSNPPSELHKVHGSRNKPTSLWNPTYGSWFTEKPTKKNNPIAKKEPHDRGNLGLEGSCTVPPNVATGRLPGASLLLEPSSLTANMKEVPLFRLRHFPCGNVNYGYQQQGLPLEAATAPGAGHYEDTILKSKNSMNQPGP
How it was run: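 Wells were coated with phospholipase C-γ at 10 μg/mL in Tris-buffered saline. Adding 30 ng/ml enzyme started the reaction, which ran at 37° C for 15 minutes before Eu-N1 PT66 antibody detection. Percent inhibition versus log10 concentration gave IC50 by variable-slope fit.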

[3] = c-Met kinase inhibition, 1 μM ATP, read-out: cMet Activity
[4] = ALK kinase inhibition, 1 μM ATP, read-out: ALK Activity
[5] = c-Met kinase inhibition, 1 μM ATP (Km level), read-out: cMet Activity
[6] = ALK kinase inhibition, 1 μM ATP (Km level), read-out: ALK Activity
[7] = 1 μM ATP (Km level), 10 ng/mL c-Met, read-out: cMet Activity (c-Met kinase inhibition, IC50 class)
[8] = 1 μM ATP (Km level), 30 ng/ml ALK, 37° C., 15 minutes, read-out: ALK Activity (ALK kinase inhibition, IC50 class)

T1 sequence (P08581 956-1390 limits assumed): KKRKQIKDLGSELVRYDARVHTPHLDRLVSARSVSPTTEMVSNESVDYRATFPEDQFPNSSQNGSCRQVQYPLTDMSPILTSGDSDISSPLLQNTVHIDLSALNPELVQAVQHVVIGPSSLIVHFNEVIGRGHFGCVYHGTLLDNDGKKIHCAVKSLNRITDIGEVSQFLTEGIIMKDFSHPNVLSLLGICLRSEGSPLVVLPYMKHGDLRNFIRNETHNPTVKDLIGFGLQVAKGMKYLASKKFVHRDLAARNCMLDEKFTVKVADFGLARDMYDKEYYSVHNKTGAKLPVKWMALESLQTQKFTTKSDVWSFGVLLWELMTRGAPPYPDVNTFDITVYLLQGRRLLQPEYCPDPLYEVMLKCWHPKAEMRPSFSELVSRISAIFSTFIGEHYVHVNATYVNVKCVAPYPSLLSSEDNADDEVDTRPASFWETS

Compound	IC50 [1, 3] [µM]	IC50 [2, 4] [µM]	IC50 [1, 7] [µM]	IC50 [2, 8] [µM]	also measured
COCCN1C(=O)CCC(C)(C)c2ccc(Nc3ncc(Cl)c(Nc4ccccc4OCC#N)n3)cc21 [Example 1582, (2-{5-Chloro-2-[1-(2-methoxy-ethyl)-5,5-dimethyl-2-oxo-2,3,4,5-tetrahydro-1H-benzo[b]azepin-8-ylamino]-pyrimidin-4-ylamino}-phenoxy)-acetonitrile]	0.1 to 1	< 0.1	–	–	–
COc1c(Nc2ncc(Cl)c(Nc3ccccc3-n3cccn3)n2)ccc2c1CCC(N1CCOCC1)CC2 (centres unmarked) [Example 901, 5-Chloro-N*2*-(1-methoxy-7-morpholin-4-yl-6,7,8,9-tetrahydro-5H-benzocyclohepten-2-yl)-N*4*-(2-pyrazol-1-yl-phenyl)-pyrimidine-2,4-diamine]	–	–	–	–	IC50 ([1]; 1 μM ATP (Km level), read-out: cMet Activity (c-Met Kinase Inhibition, IC50)): 1 to 10 µM; IC50 ([2]; 1 μM ATP (Km level), read-out: ALK Activity (ALK Kinase Inhibition, IC50)): < 0.1 µM
CCN1CCN(CC)c2cc(Nc3ncc(Cl)c(Nc4ccccc4C(=O)NC)n3)ccc2C1=O [Example 418, 2-[5-Chloro-2-(1,4-diethyl-5-oxo-2,3,4,5-tetrahydro-1H-benzo[e][1,4]diazepin-8-ylamino)-pyrimidin-4-ylamino]-N-methylbenzamide]	–	–	–	–	IC50 [1, 5]: < 0.1 µM; IC50 [2, 6]: < 0.1 µM
CNC(=O)c1ccccc1Nc1nc(Nc2cccc3c2C(=O)N(C)CCN3C)ncc1Cl [Example 213, 2-[5-Chloro-2-(1,4-dimethyl-5-oxo-2,3,4,5-tetrahydro-1H-benzo[e][1,4]diazepin-6-ylamino)-pyrimidin-4-ylamino]-N-methyl-benzamide]	–	–	–	–	IC50 [1, 5]: > 10 µM; IC50 [2, 6]: 1 to 10 µM
CCCNC(=O)c1ccccc1Nc1nc(Nc2ccc3c(c2)CCCC(=O)N3)ncc1Cl [Example 1024, 2-[5-Chloro-2-(2-oxo-2,3,4,5-tetrahydro-1H-benzo[b]azepin-7-ylamino)-pyrimidin-4-ylamino]-N-propyl-benzamide]	–	–	< 0.1	< 0.1	–
CNC(=O)c1sccc1Nc1nc(Nc2ccc3c(c2)OCCCN3C(=O)OC2CCCN(C)C2)ncc1Cl (centres unmarked) [Example 1440, 3-[5-Chloro-4-(2-methylcarbamoyl-thiophen-3-ylamino)-pyrimidin-2-ylamino]-7,8-dihydro-6H-5-oxa-9-aza-benzocycloheptene-9-carboxylic acid 1-methyl-piperidin-3-yl ester]	0.1 to 1	0.1 to 1	–	–	–
CN1C(=O)CCCc2cc(Nc3ncc(Cl)c(Nc4c(F)cccc4C(=O)NCCC#N)n3)ccc21 [Example 1042, 2-[5-Chloro-2-(1-methyl-2-oxo-2,3,4,5-tetrahydro-1H-benzo[b]azepin-7-ylamino)-pyrimidin-4-ylamino]-N-(2-cyano-ethyl)-3-fluoro-benzamide]	–	–	< 0.1	0.1 to 1	–
CN(CCC#N)c1cccc(F)c1Nc1nc(Nc2ccc3c(c2)NC(=O)CCC3(C)C)ncc1Cl [Example 1263, 3-({2-[5-Chloro-2-(5,5-dimethyl-2-oxo-2,3,4,5-tetrahydro-1H-1-benzazepin-8-ylamino)-pyrimidin-4-ylamino]-3-fluoro-phenyl}-methyl-amino)-propionitrile]	–	–	1 to 10	0.1 to 1	–
COCCN1CCc2ccc(Nc3ncc(Cl)c(N[C@H]4CC[C@@H](N(CC#N)S(C)(=O)=O)CC4)n3)cc2CC1 [Example 1384, cis-N-(4-{5-Chloro-2-[3-(2-methoxy-ethyl)-2,3,4,5-tetrahydro-1H-benzo[d]azepin-7-ylamino]-pyrimidin-4-ylamino}-cyclohexyl)-N-cyanomethyl-methanesulfonamide]	–	–	1 to 10	0.1 to 1	–
COc1cc2c(cc1Nc1ncc(Cl)c(N[C@@H]3CCCC[C@H]3NS(C)(=O)=O)n1)CCOC(=O)N2C [Example 1503, N-{(1R,2R)-2-[5-Chloro-2-(3-methoxy-5-methyl-6-oxo-5,6,8,9-tetrahydro-7-oxa-5-aza-benzocyclohepten-2-ylamino)-pyrimidin-4-ylamino]-cyclohexyl}-methanesulfonamide]	> 10	< 0.1	–	–	–
